Reference: patent EP1293213A1, “PREVENTIVES/REMEDIES FOR POSTOPERATIVE STRESS” (Japan Tobacco Inc., priority 2000, dated 2001)
Where two headings read alike, the source gives them in different places.

Key:
[1] = tested on: adrenocorticotropic hormone (ACTH); assay: Test 1: Effects on a rise in releasing of ACTH caused by surgical stress; format: in vivo, mouse; details: mice
Method: Test 1 Effects on a rise in releasing of stress hormone caused by surgical stress - effects on a rise in releasing of adrenocorticotropic hormone (ACTH)
Mice (ddY Slc male, 7 weeks of age) handled by being fastened up before the day of experiment were divided equally into groups according to their weights on the experimental day (the number of mouse in one group was 10). Mice were anesthetized by i.p. injection of 2.5mg/mouse pentobarbital Na (Nembutal(brand name), Dainihonseiyaku) and, 5 minutes later, the solvent(0.1N HCl/saline)alone or test medicine CP154,526HCl(0.3, 1 or 3 mg/kg)were intravenously injected into the tail veins of mice at a dose of 10ml/Kg weight of mouse. 10 minutes after injection, a midline incision was made in the abdomen and in about two minutes movable bowel was draped externally. Then 25 minutes after incision, 0.6ml of blood sample was collected from aorta abdominalis for 1 minute gradually by using prechilled syringes (needle size 25G) which were wetted with 100mM EDTA solution. Control mice not subjected to surgical stress were given medication by the injection of the solvent alone 5 minutes after anesthesia. […] Blood samples were centrifuged at 7,000 x g and 4°C for 20 minutes and the concentration of ACTH in supernatant was determined by IRMA method using Allegro ACTH kit (Nihon Medi+Physics Co., Ltd.). […]

[2] = tested on: corticosterone; assay: Test 2: Effects on a rise in releasing of corticosterone caused by surgical stress; format: in vivo, mouse; details: mice
Method: Test 2 Effects on a rise in releasing of stress hormone caused by surgical stress - effects on a rise in releasing of corticosterone, adrenocortical hormone.
Mice (ddY Slc male, 7weeks of age) handled by being fastened up before the day of experiment were divided equally into groups according to their weights on the experimental day (the number of mouse in one group was 6 to 7). Mice were anesthetized by i.p. injections of 2.5mg/mouse pentobarbital Na(Nembutal(brand name)), Dainihonseiyaku) and, 20 minutes later, the solvent(0.1N HCl/saline) or test medicine CP154,526HCl(0.3, 1, 3 or 10 mg/kg) were intravenously injected into the tail veins of mice at a dose of 10ml/Kg weight of mouse. 5 Minutes after injection, a midline incision was made in the abdomen, and in about one to two minutes movable bowel was draped externally, and then, abdominal part was covered with wet absorbent cotton with saline to prevent from drying. In 30 minutes after incision, while the bowel was draped externally, mice were decapitated and blood samples were collected into siliconized tubes, prechilled on ice, which contained 20ul of 100mM EDTA. Blood samples were centrifuged at 7,000 x g and 4°C for 20 minutes and the supernatant was obtained. Negative control mice not subjected to surgical stress were decapitated and blood samples were collected in 35 minutes after injection of the solvent alone. […]

[3] = biological target: T1, CRF type I(CRF-I) receptor (Homo sapiens, UniProt P34998); assay: in vitro Binding Assay using membrane fraction of recombinant cell (6EF2B) expressing CRF receptor gene (SPA method); details: 125I-Tyr0-human/rat CRF, membrane fraction of 6EF2B cells (derived from Hela cell)
T1 construct: expressed in transfected cells; membrane fraction
T1 sequence (P34998 24-415): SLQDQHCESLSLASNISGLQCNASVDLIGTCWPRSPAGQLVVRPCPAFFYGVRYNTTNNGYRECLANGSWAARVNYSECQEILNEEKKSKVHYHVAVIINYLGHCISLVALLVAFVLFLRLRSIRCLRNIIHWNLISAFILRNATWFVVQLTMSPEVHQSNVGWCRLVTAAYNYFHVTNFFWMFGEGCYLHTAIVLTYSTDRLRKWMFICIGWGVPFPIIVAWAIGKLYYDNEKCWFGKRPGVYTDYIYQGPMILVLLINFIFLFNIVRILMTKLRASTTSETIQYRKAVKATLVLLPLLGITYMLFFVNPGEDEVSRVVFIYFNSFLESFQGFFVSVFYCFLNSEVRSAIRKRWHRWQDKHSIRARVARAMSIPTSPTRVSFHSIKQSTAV
Method: Experiment 1 : in vitro Binding Assay using membrane fraction of recombinant cell (6EF2B) with expression of CRF receptor gene
Preparation of membrane fraction:
Recombinant cells 6EF2B (derived from Hela cell), which express CRF type I(CRF-I) receptor gene stably, were cultivated in Eagle's MEM medium(10%FCS, 400ug/ml G418.1/100 penicillin/streptomycin). After cultivation, cells were suspended in 50mM Tris-HCl (pH7.2) solution containing 1mM EDTA and incubated at 25°C for 15 to 30 minutes. After that, every step was carried out at 4°C. Treated cells were suspended in 50mM Tris-HCl(pH7.2) containing 10% sucrose and homogenized by a Polytron(PT10-35 model). This step of homogenization was carried out at 25,000 rpm for 15 to 20 seconds and repeated twice or three times. In the course of this step the homogenates were inspected under a microscope. Homogenates were centrifuged at 600 x g for 5 minutes and the supernatant was centrifuged again at 40,000 x g for 30 minutes. The obtained pellet was resuspended in 50mM Tris-HCl(10mM MgCl2, 2mM EGTA) and the suspension was centrifuged again at 40,000 x g for 30minutes. The obtained pellet was used for further experiments as membrane fraction. The membrane fraction was diluted with 50mM Tris-HCl(10mM MgCl2, 2mM EGTA, 0.1%BSA, 100 kallikrein units/ml aprotinin, 0.1mM bacitracin, pH7.2) to have the concentration of 1mg/ml and then stored at -80°C. DC protein assay kit (produced by Bio-RAD) was used to determine the protein concentration of the membrane fraction.
Binding Assay using CRF-I receptor by means of SPA method:
Compounds to be evaluated were stored at the concentration of 10mM in DMSO. […] The assay buffer consisted of 50mM Tris-HCl (pH7.7) containing 100mM NaCl, 5mM KCl, 2mM CaCl2, 0.1% BSA, 0.1% bacitracin, 0.05% FCS and 5% horse serum. The reactions were carried out in 96-well Optiplate(Packard) in which to 50ul of the test substance solution, were added 50ul of WGA-beads & membrane fraction (50 to 100ug membrane fraction/10mg beads/ml) pre-coupled by stirring (rotating with 10rpm) at room temperature for 2 hours on the day of experiment, and 100ul of 0.4nM ^125I-Tyr^0-human/rat CRF(NEX-216, Dupont NEN), to be made up 200ul as total volume, and the mixture was incubated at 25°C for 3 hours. By the way, the step of pre-coupling was carried out by using beads solution (20mg/ml) suspended in 50mM Tris-HCl buffer solution (pH7.2) and after stirring beads were washed twice with Tris-HCl buffer and once with assay buffer by centrifugation (3000 rpm, 5 minutes). In order to measure total binding and non-specific binding activity, assay buffer solution and 1uM(final conc.) cold human /rat CRF(C-3042; SIGMA) solution were used respectively in place of test substance solution. After incubation, the mixture was centrifuged at 23 °C, 2,500 rpm for 5 minutes and the scintillation was counted with Top Count (Packard). An influence of color quench was corrected by standard curve made by using tartrazine as a quencher. Evaluation of samples was carried out several times.

[4] = tested on: adrenocorticotropic hormone(ACTH); assay: Experiment 2: Model of surgical stress in mouse (inhibitory action of rise in releasing of ACTH); format: in vivo; details: ddY male mice, intravenous, surgical stress (abdominal incision, bowel draped externally)
Method: Experiment 2: Model of surgical stress in mouse (Inhibitory action of rise in releasing of adrenocorticotropic hormone(ACTH))
ddY male mice(SLC, 7 to 8 weeks of age: weight 34 to 42g)were used for experiments. Mice were housed before use under controlled lighting condition (12hours light and 12hours dark cycle(lights on from 8:00 to 20:00) at 23±3 °C and 55±15% humidity, and maintained with basal diet and water ad labium. On the experimental day, mice were moved to experimental room and habituated before experiment for more than 1 hour. On the day before experiment, mice were previously handled (by being fastened up for 10 to 15 seconds like the case of i.p. injections) to habituate to the stress caused by handling.
Medicine and administration:
Test compound to be evaluated was dissolved in and diluted with physiological saline(Otsuka), 5% mannitol or 0.1N NaHCO3/saline. Then the test sample solution was given into veins of mice at a dose of 10ml/Kg body weight. The same solvent alone mentioned above was given into veins of control mice group at a dose of 10ml/Kg weight.
Mice were anesthetized by injection of pentobarbital Na (2.5mg/mouse i.p.) and after 15 minutes the solvent alone or the solution containing test sample to be evaluated were intravenously injected on the tails of mice at a dose of 10ml/ Kg weight of mouse. After more 10 minutes a midline incision was made in the abdomen and in two minutes bowel was draped externally. Then 2.5 minutes after incision 0.6ml of blood samples were collected from main vein abdominalis for 1 minute gradually by using prechilled syringes(needle size 25G), which were wetted with 100mM EDTA solution. Control mice not subjected to surgical stress were decapitated and blood samples were collected at 13 to 14 minutes after medication of solvent alone and to them added 20ul of 100mM EDTA. Blood samples collected were put into siliconized tubes and centrifuged at 10,000rpm and 4°C for 5 minutes. The concentration of ACTH in supernatant was determined by IRMA method using Allegro ACTH kit (Nihon Medi+Physics Co.,Ltd.). […]

[5] = read-out: IC50(nM) [experiment 1]

SMILES: CCCCN(CC)c1nc(C)nc2c1c(C)cn2-c1c(C)cc(C)cc1C.Cl [CP-154,526 HCl, N-butyl-N-[2,5-dimethyl-7-(2,4,6-trimethylphenyl)-7H -pyrrolo[2,3-d]pyrimidine-4-yl]-N-ethylamine chloride]
- increase of ACTH concentration in plasma ([1]; i.v. 0.3, 1 or 3 mg/kg, surgical stress, dose-dependently (Fig. 1)): inhibited
- dose showing statistically significant inhibitory action on increase of ACTH concentration in plasma ([1]; i.v., surgical stress (Fig. 1)): not less than 1 mg/Kg
- increase of corticosterone concentration in plasma ([2]; i.v. 0.3, 1, 3 or 10 mg/kg, surgical stress, viscera exposed 30 minutes, dose-dependently (Fig. 2)): inhibited
- dose showing statistically significant inhibitory action on increase of corticosterone concentration in plasma ([2]; i.v., surgical stress (Fig. 2)): not less than 10 mg/Kg

SMILES: CCc1cc(S(=O)(=O)N(CC)CC)cc(NC(=O)c2cc(Cl)c(O)c(Cl)c2)c1OC [Example 6, 3,5-dichloro-N-(3-ethyl-5-diethylsulfamoyl-2-methoxyphenyl)-4-hydroxybenzamide]
- IC50 [3, 5]: 218 nM

SMILES: CCc1cc(S(=O)(=O)N(CC)CC)cc(NC(=O)c2cc(Cl)c([O-])c(Cl)c2)c1OC.[Na+] [Example 8, sodium 2,6-dichloro-4-(N-(3-ethyl-5-diethylsulfamoyl-2-methoxyphenyl)carbamoyl)phenoxide]
- IC50 [3, 5]: 195 nM
- Inhibitory action on ACTH release (mg/kg) [experiment 2] [4]: 10 to 30 mg/kg

SMILES: CCc1cc(S(=O)(=O)N(CC)CC)cc(NC(=O)c2cc(Cl)c(OP(=O)(O)O)c(Cl)c2)c1OC.O=P(O)(O)O [Example 9, phosphate 2,6-dichloro-4-(N-(3-ethyl-5-diethylsulfamoyl-2-methoxyphenyl)carbamoyl)phenylphosphate]
- IC50 ([3]; IC50(nM) [experiment 1]): 278 nM
- Inhibitory action on ACTH release (mg/kg) [experiment 2] [4]: 10 to 30 mg/kg

SMILES: CCN(CC)S(=O)(=O)c1cc(NC(=O)c2cc(Cl)c(O)c(Cl)c2)c(OC)c(OC)c1 [Example 10, 3,5-dichloro-N-(5-diethylsulfamoyl-2,3-dimethoxyphenyl)-4-hydroxybenzamide]
- IC50 [3, 5]: 165 nM

SMILES: CCN(CC)S(=O)(=O)c1cc(NC(=O)c2cc(Cl)c(O)c([N+](=O)[O-])c2)c(OC)c(OC)c1 [Example 11, 3-chloro-N-(5-diethylsulfamoyl-2,3-dimethoxyphenyl)-4-hydroxy-5-nitrobenzamide]
- IC50 [3, 5]: 123 nM

SMILES: CCN(CC)S(=O)(=O)c1cc(NC(=O)c2cc(Cl)c(O)c(Cl)c2)c(OC)c(N(C)C)c1 [Example 12, 3,5-dichloro-N-(5-diethylsulfamoyl-3-(dimethylamino)-2-methoxyphenyl)-4-hydroxybenzamide.]
- IC50 [3, 5]: 57 nM
